Reference: patent US20250019377A1 (JACOBIO PHARMACEUTICALS CO., LTD, priority 2021, published 2025)

Key:
[1] = molecular target: T1, K-Ras G12V (Homo sapiens, UniProt P01116, G12V); experiment: SOS1 catalyzed nucleotide exchange assay (GDP form K-Ras), K-Ras G12V; conditions: read-out: K-Ras G12V GDP Biochemical Activity (IC50)
[2] = test system: p-ERK in AGS cells (K-Ras G12D); experiment: Phospho-ERK1/2(THR202/TYR204) HTRF assay, AGS; assay type: cell-based; conditions: Homo sapiens, 2 h, 2 hours incubation
Method: (§1) p-ERK (MAPK pathway) inhibition activity of each of compounds in a variety of K-Ras mutant and K-Ras WT cell lines indicated in Table 23 was evaluated.
(§2) Each of cells in culture medium was seeded in 96-well plates at density indicated in Table 23 and then put in a cell incubator to incubate overnight. The next day, the culture medium was removed and the compound diluted in assay medium was added in each well. […] 10 μL of cell lysates from the 96-well plates were transferred to a 384-well plate (Greiner) containing 2.5 μL/well HTRF® pre-mixed antibodies (Cisbio 64AERPEH). The plate was incubated 4 hours at 25° C. and then read HTRF signals on Tecan Spark multimode microplate reader. The data were analyzed using a 4-parameter logistic model to calculate IC50 values.

[3] = test system: p-ERK in SW620 cells (K-Ras G12V); experiment: Phospho-ERK1/2(THR202/TYR204) HTRF assay, SW620; assay type: cell-based; conditions: Homo sapiens, SW-620, 2 h, 2 hours incubation
Method: as §1, §2

[4] = test system: AGS cells (K-Ras G12D); experiment: 2D cell growth inhibition assay, AGS; assay type: cell-based; conditions: Homo sapiens, 144 h, 6 days, absolute IC50
[5] = test system: AsPC-1 cells (K-Ras G12D); experiment: 2D cell growth inhibition assay, AsPC-1; assay type: cell-based; conditions: Homo sapiens, ASPC1, 144 h, AsPC-1, K-Ras G12D, 6 days, absolute IC50
[6] = test system: SW620 cells (K-Ras G12V); experiment: 2D cell growth inhibition assay, SW620; assay type: cell-based; conditions: Homo sapiens, SW-620, 144 h, 6 days, absolute IC50
Method: The cell growth inhibition activity of each of compounds was tested by performing cell growth inhibition assays on a variety of K-Ras mutant and K-Ras WT cell lines indicated in Table 25.
Each of cells in culture medium was plated in TC-treated 96-well plates at a density indicated in Table 25 and incubated in a cell incubator overnight. The next day, each of compounds was diluted in culture medium and added to the plates. After 6 days incubation in cell incubator, the cell viability was detected by CellTiter-Glo® Cell Viability Assay kit (Promega).

[7] = molecular target: T1, K-Ras G12V; experiment: biochemical

T1 sequence (P01116 1-169 isoform P01116-2 G12V): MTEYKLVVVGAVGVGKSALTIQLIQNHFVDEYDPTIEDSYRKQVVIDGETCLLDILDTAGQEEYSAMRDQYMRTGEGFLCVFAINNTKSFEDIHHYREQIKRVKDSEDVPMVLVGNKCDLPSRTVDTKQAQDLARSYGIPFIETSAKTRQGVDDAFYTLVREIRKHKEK

| Compound | IC50 [1] [nM] | IC50 [2] [nM] | IC50 [3] [nM] | IC50 [4] [nM] | IC50 [5] [nM] | IC50 [6] [nM] | IC50 [7] [nM] |
| --- | --- | --- | --- | --- | --- | --- | --- |
| C#Cc1c(F)ccc2cc(O)cc(-c3nc(OC(C)C)c4c(N5CCCOCC5)nc(OC[C@@]56CCCN5C[C@H](F)C6)nc4c3F)c12 [Compound 52, 5-ethynyl-6-fluoro-4-(8-fluoro-2-(((2R,7aS)-2-fluorotetrahydro-1H-pyrrolizin-7a(5H)-yl)methoxy)-5-isopropoxy-4-(1,4-oxazepan-4-yl)pyrido[4,3-d]pyrimidin-7-yl)naphthalen-2-ol trifluoroacetic acid] | 1.88 | 9.66 | 2.43 | 8.11 | 40.4 | 5.66 | 16.6 |
| C#Cc1c(F)ccc2cc(O)cc(-c3ncc4c(N5[C@H]6COC[C@H](C)[C@@H]5C6)nc(OC[C@@]56CCCN5C[C@H](F)C6)nc4c3F)c12 [Compound 110, 5-ethynyl-6-fluoro-4-(8-fluoro-2-(((2R,7aS)-2-fluorotetrahydro-1H-pyrrolizin-7a(5H)-yl)methoxy)-4-((1R,5R,6S)-5-methyl-3-oxa-7-azabicyclo[4.1.1]octan-7-yl)pyrido [4,3-d]pyrimidin-7-yl)naphthalen-2-ol] | 6.63 | 44.3 | 62.2 |  |  | 81 | > 1000 |
| C#Cc1c(F)ccc2cc(O)cc(-c3ncc4c(N5CCOCC(=O)C5)nc(OC[C@@]56CCCN5C[C@H](F)C6)nc4c3F)c12 [Compound 30, 4-(7-(8-ethynyl-7-fluoro-3-hydroxynaphthalen-1-yl)-8-fluoro-2-(((2R,7aS)-2-fluorotetrahydro-1H-pyrrolizin-7a(5H)-yl)methoxy)pyrido[4,3-d]pyrimidin-4-yl)-1,4-oxazepan-6-one trifluoroacetic acid] |  | 2.04 | 3.97 |  |  |  |  |
| C#Cc1c(F)ccc2cc(O)cc(-c3ncc4c(N5CCOCC(C)(C)C5)nc(OC[C@@]56CCCN5C[C@H](F)C6)nc4c3F)c12 [Compound 102, 4-(4-(6,6-dimethyl-1,4-oxazepan-4-yl)-8-fluoro-2-(((2R,7aS)-2-fluorotetrahydro-1H-pyrrolizin-7a(5H)-yl)methoxy)pyrido[4,3-d]pyrimidin-7-yl)-5-ethynyl-6-fluoro-naphthalen-2-ol] |  | 192 | 47.1 |  |  |  |  |
| C#Cc1c(F)ccc2cc(O)cc(-c3ncc4c(N5CC(F)(F)COCC5C)nc(OC[C@@]56CCCN5C[C@H](F)C6)nc4c3F)c12 (stereo partly drawn) [Compound 105, 4-(4-(6,6-difluoro-3-methyl-1,4-oxazepan-4-yl)-8-fluoro-2-(((2R,7aS)-2-fluorotetra-hydro-1H-pyrrolizin-7a(5H)-yl)methoxy)pyrido[4,3-d]pyrimidin-7-yl)-5-ethynyl-6-fluoronaphthalen-2-ol] | 2.08 | 23 | 34.8 | 53.6 | 326 | 104 | 378 |
| C#Cc1c(F)ccc2cc(O)cc(-c3ncc4c(N5CCCOCC5)nc(OCC56CCCN5CC(F)(F)C6)nc4c3F)c12 (stereo not shown) [Compound 9, 4-(2-((2,2-difluorotetrahydro-1H-pyrrolizin-7a(5H)-yl)methoxy)-8-fluoro-4-(1,4-oxazepan-4-yl)pyrido[4,3-d]pyrimidin-7-yl)-5-ethynyl-6-fluoronaphthalen-2-ol] |  | 66.2 | 15.4 | 186 | 586 | 171 |  |
| C#Cc1c(F)c(F)cc2cc(O)cc(-c3ncc4c(N5CCCOCC5)nc(OC[C@@]56CCCN5C[C@H](F)C6)nc4c3F)c12 [Compound 29] |  | 3.3 | 7.74 | 8.22 | 53.6 | 4.62 |  |
| Oc1cc(-c2ncc3c(N4CCCOCC4)nc(OC[C@@]45CCCN4C[C@H](F)C5)nc3c2F)c2ccccc2c1 [Compound 118, 4-(8-fluoro-2-(((2R,7aS)-2-fluorotetrahydro-1H-pyrrolizin-7a(5H)-yl)methoxy)-4-(1,4-oxazepan-4-yl)pyrido[4,3-d]pyrimidin-7-yl)naphthalen-2-ol] |  | 113 | 110 | 184 | 1420 | 343 |  |
| C#Cc1c(F)ccc2cccc(-c3ncc4c(N5CCCOC6CC65)nc(OC[C@@]56CCCN5C[C@H](F)C6)nc4c3F)c12 (stereo partly drawn) [Compound 115, 6-(7-(8-ethynyl-7-fluoronaphthalen-1-yl)-8-fluoro-2-(((2R,7aS)-2-fluorotetrahydro-1H-pyrrolizin-7a(5H)-yl)methoxy)pyrido [4,3-d]pyrimidin-4-yl)-2-oxa-6-azabicyclo [5.1.0]octane] |  | 46.5 | 27.9 | 133 | 237 | 163 |  |
| C#Cc1cccc2cc(O)cc(-c3ncc4c(N5CCCOCC5)nc(OC[C@@]56CCCN5C[C@H](F)C6)nc4c3F)c12 [Compound 82] |  | 2.93 | 13.8 | 15.5 | 226 | 116 |  |
| C#Cc1c(F)ccc2cc(O)cc(-c3ncc4c(N5CCOCC(=C)C5)nc(OC[C@@]56CCCN5C[C@H](F)C6)nc4c3F)c12 [Compound 24, 5-ethynyl-6-fluoro-4-(8-fluoro-2-(((2R,7aS)-2-fluorotetrahydro-1H-pyrrolizin-7a(5H)-yl)methoxy)-4-(6-methylene-1,4-oxazepan-4-yl)pyrido[4,3-d]pyrimidin-7-yl)naphthalen-2-ol] |  | 23.1 | 4.39 | 42.4 | 381 | 15.3 |  |
| C#Cc1c(F)ccc2cc(O)cc(-c3ncc4c(N5CCCOCC56CC6)nc(OC[C@@]56CCCN5C[C@H](F)C6)nc4c3F)c12 [Compound 50, 5-ethynyl-6-fluoro-4-(8-fluoro-2-(((2R,7aS)-2-fluorotetrahydro-1H-pyrrolizin-7a(5H)-yl)methoxy)-4-(8-oxa-4-azaspiro[2.6]nonan-4-yl)pyrido[4,3-d]pyrimidin-7-yl)naphthalen-2-ol trifluoroacetic acid] |  |  | 121 |  |  |  |  |
| C#Cc1c(F)ccc2cc(O)cc(-c3ncc4c(N5CCOCC(COC)C5)nc(OC[C@@]56CCCN5C[C@H](F)C6)nc4c3F)c12 (stereo partly shown) [Compound 87] |  | 1.5 | 5.98 | 3.41 | 32.8 | 27.2 |  |
| C#Cc1c(F)ccc2cc(O)cc(-c3ncc4c(N5CC(OC)COCC5C)nc(OC[C@@]56CCCN5C[C@H](F)C6)nc4c3F)c12 (stereo partly drawn) [Compound 106, 5-ethynyl-6-fluoro-4-(8-fluoro-2-(((2R,7aS)-2-fluorotetrahydro-1H-pyrrolizin-7a(5H)-yl)methoxy)-4-(6-methoxy-3-methyl-1,4-oxazepan-4-yl)pyrido[4,3-d]pyrimidin-7-yl)naphthalen-2-ol] |  | 39.4 | 21.5 | 98.1 | 681 | 66.4 |  |
| C#Cc1c(F)ccc2cc(O)cc(-c3ncc4c(N5CCCOCC5)nc(OC[C@H]5CCCN5C)nc4c3F)c12 [Compound 2, (R)-5-ethynyl-6-fluoro-4-(8-fluoro-2-((1-methylpyrrolidin-2-yl)methoxy)-4-(1,4-oxazepan-4-yl)pyrido[4,3-d]pyrimidin-7-yl)naphthalen-2-ol] | 4.99 |  |  | 178 | 293 | 182 | 207 |
| C#Cc1c(F)ccc2cc(O)cc(-c3ncc4c(N5CC6COCC5C6)nc(OC[C@@]56CCCN5C[C@H](F)C6)nc4c3F)c12 (stereo partly drawn) [Compound 94, 4-(4-(3-oxa-6-azabicyclo[3.2.1]octan-6-yl)-8-fluoro-2-(((2R,7aS)-2-fluorotetrahydro-1H-pyrrolizin-7a(5H)-yl)methoxy)pyrido [4,3-d]pyrimidin-7-yl)-5-ethynyl-6-fluoro naphthalen-2-ol] |  |  | 275 |  |  |  |  |
| C#Cc1c(F)ccc2cc(O)cc(-c3ncc4c(N5CCCO[C@H]6C[C@H]65)nc(OC[C@@]56CCCN5C[C@H](F)C6)nc4c3F)c12 (single isomer, unassigned) [Compound 7A] |  |  |  | 175 | 1510 | 846 |  |
| C#Cc1c(F)ccc2c(F)c(O)cc(-c3ncc4c(N5CCCOCC5)nc(OC[C@@]56CCCN5C[C@H](F)C6)nc4c3F)c12 [Compound 107, 5-ethynyl-1,6-difluoro-4-(8-fluoro-2-(((2R,7aS)-2-fluorotetrahydro-1H-pyrrolizin-7a(5H)-yl)methoxy)-4-(1,4-oxazepan-4-yl)pyrido[4,3-d]pyrimidin-7-yl)naphthalen-2-ol] |  | 66.1 | 40.2 | 504 | 885 | 185 |  |
| C#Cc1c(F)ccc2cc(O)cc(-c3ncc4c(N5CCOCC6(CC6)C5)nc(OC[C@@]56CCCN5C[C@H](F)C6)nc4c3F)c12 [Compound 103, 5-ethynyl-6-fluoro-4-(8-fluoro-2-(((2R,7aS)-2-fluorotetrahydro-1H-pyrrolizin-7a(5H)-yl)methoxy)-4-(5-oxa-8-azaspiro[2.6]nonan-8-yl)pyrido[4,3-d]pyrimidin-7-yl) naphthalen-2-ol] |  |  | 187 |  |  | 109 |  |
| C#Cc1c(F)ccc2cc(O)cc(-c3ncc4c(N5CCOCCC56CC6)nc(OC[C@@]56CCCN5C[C@H](F)C6)nc4c3F)c12 [Compound 43, 5-ethynyl-6-fluoro-4-(8-fluoro-2-(((2R,7aS)-2-fluorotetrahydro-1H-pyrrolizin-7a(5H)-yl)methoxy)-4-(7-oxa-4-azaspiro[2.6]nonan-4-yl)pyrido[4,3-d]pyrimidin-7-yl)naphthalen-2-ol trifluoroacetic acid] |  | 101 | 21.8 | 248 | 1850 | 76.3 |  |
